Series [1] can be described thus: In vitro stability in rat plasma. Type of series: in vitro ADME. The method, then: (§1) Apelin peptides were spiked into rat plasma, liver homogenate, and kidney homogenate, which were obtained from commercial sources, to a final concentration of 5 μM. The samples were then incubated at 37° C. over a period of 4 hr. […] In a typical experiment, an aliquot of 100 μL of sample was taken from the incubation vial, followed by addition of 300 μL of MeOH containing internal standard. The quenched sample was centrifuged at 5500 g for 15 min after 15 min vortex in room temperature. The supernatant was then analyzed by high resolution LC-MS. […] In vitro plasma, […], and kidney stability results are shown below in Table 14.

A short description of series [2]: In vitro stability in rat liver homogenate. Format: in vitro ADME. The settings on record: tissue homogenate. The method, then:
as §1

Starred links: 1 amine or outer side, 2 acyl side, 3 side chain; linkers in the order of their positions; H or OH if unused. Non-standard residues stand in square brackets, D forms with d. Residues, ends and D or L forms follow the SMILES beside them. ξ: configuration not given here. *: point of attachment. Phe(4-Cl) = N[C@@H](Cc1ccc(Cl)cc1)C(=O)O; γGlu = O=C(O)[C@H](CCC(=O)[*:2])N[*:1]; 2Nal = N[C@@H](Cc1ccc2ccccc2c1)C(=O)O; NMeR = CN[C@@H](CCCNC(=N)N)C(=O)O; Tridecanoyl = CCCCCCCCCCCCC(=O)*; hArg = N=C(N)NCCCC[C@H](N)C(=O)O; Cha = N[C@@H](CC1CCCCC1)C(=O)O; αMeL = CC(C)C[C@](C)(N)C(=O)O; Pip = O=C(O)[C@@H]1CCCCN1; Nle = CCCC[C@H](N)C(=O)O; ξαMeP = CC1(C(=O)O)CCCN1; ξβ3hV = CC(C)C(N)CC(=O)O; AEEA = NCCOCCOCC(=O)O; Aib = CC(C)(N)C(=O)O

From patent US11807693B2 (priority 2014, dated 2023) come the findings set out here.

In general, amount remaining refers to what is left of the initial amount, in per cent. A higher amount remaining goes with less turnover. As for `CCCCCCCCCCCCC(=O)N[C@@H](CCC(=O)NCCOCCOCC(=O)NCCOCCOCC(=O)N[C@@H](CCC(N)=O)C(=O)N[C@H](CCCNC(=N)N)C(=O)N1CCC[C@H]1C(=O)N(C)[C@@H](CCCCNC(=N)N)C(=O)NC(CC(=O)N[C@@H](CO)C(=O)N[C@@H](Cc1c[nH]cn1)C(=O)N[C@@H](CCCCN)C(=O)NCC(=O)N1CCC[C@H]1C(=O)N[C@@H](CCCC)C(=O)N1CCC[C@H]1C(=O)N[C@@H](Cc1ccc(Cl)cc1)C(=O)O)C(C)C)C(=O)O` (stereo partly shown) [compound 384], the share remaining at 4 h, 5 μM in series [1] is 25%; in series [2] it was < 1%.

Take `CCCCCCCCCCCCC(=O)N[C@@H](CCC(=O)NCCOCCOCC(=O)NCCOCCOCC(=O)N[C@H](CCC(N)=O)C(=O)N[C@@H](CCCNC(=N)N)C(=O)N1CCC[C@H]1C(=O)N(C)[C@@H](CCCNC(=N)N)C(=O)N[C@@](C)(CC(C)C)C(=O)N[C@@H](CO)C(=O)N[C@@H](Cc1c[nH]cn1)C(=O)N[C@@H](CCCCN)C(=O)NCC(=O)N1CCCC[C@H]1C(=O)N[C@@H](CCCC)C(=O)N1CCC[C@@]1(C)C(=O)N[C@@H](Cc1ccc(Cl)cc1)C(=O)O)C(=O)O` [compound 555]: the values for the share remaining at 4 h, 5 μM in series [1] and in series [2] were > 90% and < 1%, respectively.

In the case of `CCCCCCCCCCCCC(=O)N[C@@H](CCC(=O)NCCOCCOCC(=O)NCCOCCOCC(=O)N[C@@H](CCC(N)=O)C(=O)N[C@@H](CCCNC(=N)N)C(=O)N1CCC[C@H]1C(=O)N(C)[C@@H](CCCNC(=N)N)C(=O)N[C@H](CC(=O)N[C@@H](CO)C(=O)N[C@@H](Cc1c[nH]cn1)C(=O)N[C@@H](CCCCN)C(=O)NCC(=O)N1CCC[C@H]1C(=O)N[C@@H](CCCC)C(=O)N1CCC[C@H]1C(=O)N[C@@H](Cc1ccc(Cl)cc1)C(=O)O)CC(C)C)C(=O)O` [compound 422], the fraction remaining at 4 h, 5 μM in series [1] was 37%; in series [2] it was < 1%.

In the case of `CCCCCCCCCCCCC(=O)N[C@@H](CCC(=O)NCCOCCOCC(=O)NCCOCCOCC(=O)N[C@@H](CCC(N)=O)C(=O)N(C)[C@@H](CCCCNC(=N)N)C(=O)N1CCC[C@H]1C(=O)N(C)[C@@H](CCCNC(=N)N)C(=O)N[C@@](C)(CC(C)C)C(=O)N[C@@H](CO)C(=O)N[C@@H](Cc1c[nH]cn1)C(=O)N[C@@H](CCCCN)C(=O)NCC(=O)N1CCC[C@H]1C(=O)N[C@@H](CCCC)C(=O)N1CCC[C@H]1C(=O)N[C@@H](Cc1ccc(Cl)cc1)C(=O)O)C(=O)O` [compound 484], the amount remaining at 4 h, 5 μM in series [1] is 79%; in series [2], < 1%.

For `CCCCCCCCCCCCC(=O)N[C@@H](CCC(=O)NCCOCCOCC(=O)NCCOCCOCC(=O)N[C@@H](CCC(N)=O)C(=O)N[C@H](CCCNC(=N)N)C(=O)N1CCC[C@H]1C(=O)N[C@@H](CCCCNC(=N)N)C(=O)N[C@@](C)(CC(C)C)C(=O)N[C@@H](CO)C(=O)N[C@@H](Cc1c[nH]cn1)C(=O)N[C@@H](CCCCN)C(=O)NCC(=O)N1CCC[C@H]1C(=O)N[C@@H](CCCC)C(=O)N1CCC[C@H]1C(=O)N[C@@H](Cc1ccc(Cl)cc1)C(=O)O)C(=O)O` [compound 485], the share remaining at 4 h, 5 μM is 74% in series [1] and < 1% in series [2].

On to `CCCCCCCCCCCCC(=O)N[C@@H](CCC(=O)NCCOCCOCC(=O)NCCOCCOCC(=O)N[C@@H](CCC(N)=O)C(=O)N[C@@H](CCCNC(=N)N)C(=O)N1CCC[C@H]1C(=O)N(C)[C@@H](CCCNC(=N)N)C(=O)N[C@@H](CC(C)C)C(=O)N[C@@H](CO)C(=O)N[C@H](CN[C@@H](CCCCN)C(=O)NCC(=O)N1CCC[C@H]1C(=O)N[C@@H](CCCC)C(=O)N1CCC[C@H]1C(=O)N[C@@H](Cc1ccc(Cl)cc1)C(=O)O)Cc1c[nH]cn1)C(=O)O` [compound 469], for which the amount remaining at 4 h, 5 μM in series [1] is 36%; in series [2], < 1%.

Regarding `CCCCCCCCCCCCC(=O)N[C@@H](CCC(=O)NCCOCCOCC(=O)NCCOCCOCC(=O)N[C@H](CCC(N)=O)C(=O)N[C@@H](CCCNC(=N)N)C(=O)N1CCC[C@H]1C(=O)N(C)[C@@H](CCCNC(=N)N)C(=O)N[C@@H](CC1CCCCC1)C(=O)N[C@@H](CO)C(=O)N[C@@H](Cc1c[nH]cn1)C(=O)N[C@@H](CCCCN)C(=O)NCC(=O)N1CCCC[C@H]1C(=O)N[C@@H](CCCC)C(=O)NC(C)(C)C(=O)N[C@@H](Cc1ccc(Cl)cc1)C(=O)O)C(=O)O` [compound 499] ({Tridecanoyl-γGlu-AEEA-AEEA}-[dQ]RP[NMeR][Cha]SHKG[Pip][Nle][Aib][Phe(4-Cl)]-OH), the share remaining at 4 h, 5 μM in series [1] is > 90%; in series [2], < 1%.

Turning to `CCCC[C@H](NC(=O)[C@@H]1CCCN1C(=O)CNC(=O)[C@H](CCCCN)NC(=O)[C@H](Cc1c[nH]cn1)NC(=O)[C@H](CO)NC(=O)[C@H](CC1CCCCC1)NC(=O)[C@H](CCCNC(=N)N)N(C)C(=O)[C@@H]1CCCN1C(=O)[C@H](CCCNC(=N)N)NC(=O)[C@H](CCC(N)=O)NC(=O)[C@H](CCCNC(=N)N)NC(C)=O)C(=O)N1CCC[C@H]1C(=O)N[C@@H](Cc1ccc(Cl)cc1)C(=O)O` [compound 66] (Ac-RQRP[NMeR][Cha]SHKGP[Nle]P[Phe(4-Cl)]-OH), in series [1], the share remaining at 4 h, 5 μM came to 2.4%.

In the case of `CCCCCCCCCCCCC(=O)N[C@@H](CCC(=O)NCCOCCOCC(=O)NCCOCCOCC(=O)N[C@H](CCC(N)=O)C(=O)N[C@@H](CCCNC(=N)N)C(=O)N1CCCC1(C)C(=O)N[C@@H](CCCCNC(=N)N)C(=O)NC(CC(=O)N[C@@H](CO)C(=O)N[C@@H](Cc1c[nH]cn1)C(=O)N[C@@H](CCCCN)C(=O)NCC(=O)N1CCCC[C@H]1C(=O)N[C@@H](CCCC)C(=O)N[C@@H](Cc1ccc(Cl)cc1)C(=O)O)C(C)C)C(=O)O` (stereo partly drawn) [compound 501] ({Tridecanoyl-γGlu-AEEA-AEEA}-[dQ]R[ξαMeP][hArg][ξβ3hV]SHKG[Pip][Nle][Phe(4-Cl)]-OH), the amount remaining at 4 h, 5 μM in series [1] was > 90%; in series [2], < 1%.

Regarding `CCCCCCCCCCCCC(=O)N[C@@H](CCC(=O)NCCOCCOCC(=O)NCCOCCOCC(=O)N[C@@H](CCC(N)=O)C(=O)N[C@@H](CCCCNC(=N)N)C(=O)N1CCC[C@H]1C(=O)N[C@@H](CCCCNC(=N)N)C(=O)N[C@@H](CC(C)C)C(=O)N[C@@H](CO)C(=O)N[C@@H](Cc1c[nH]cn1)C(=O)N[C@@H](CCCCN)C(=O)NCC(=O)N1CCC[C@H]1C(=O)N[C@@H](CCCC)C(=O)N1CCC[C@H]1C(=O)N[C@@H](Cc1ccc(Cl)cc1)C(=O)O)C(=O)O` [compound 357], the results for the share remaining at 4 h, 5 μM in series [1] and in series [2] were 56% and 0%, respectively.

As to `CCCCCCCCCCCCC(=O)N[C@@H](CCC(=O)NCCOCCOCC(=O)NCCOCCOCC(=O)N[C@@H](CCC(N)=O)C(=O)N[C@@H](CCCNC(=N)N)C(=O)N[C@@H](CCC(=O)O)C(=O)N(C)[C@@H](CCCNC(=N)N)C(=O)N[C@@H](CC(C)C)C(=O)N[C@@H](CO)C(=O)N[C@@H](Cc1c[nH]cn1)C(=O)N[C@@H](CCCCN)C(=O)NCC(=O)N1CCC[C@H]1C(=O)N[C@@H](CCCC)C(=O)N1CCC[C@H]1C(=O)N[C@@H](Cc1ccc(Cl)cc1)C(=O)O)C(=O)O` [compound 476], the share remaining at 4 h, 5 μM was 40% in series [1] and < 1% in series [2].

Consider `CCCCCCCCCCCCC(=O)N[C@@H](CCC(=O)NCCOCCOCC(=O)NCCOCCOCC(=O)N[C@@H](CCC(N)=O)C(=O)N[C@@H](CCCCNC(=N)N)C(=O)N1CCC[C@H]1C(=O)N(C)[C@@H](CCCCNC(=N)N)C(=O)N[C@@H](CC(C)C)C(=O)N[C@@H](CO)C(=O)N[C@@H](Cc1c[nH]cn1)C(=O)N[C@@H](CCCCN)C(=O)NCC(=O)N1CCC[C@H]1C(=O)N[C@@H](CCCC)C(=O)N1CCC[C@H]1C(=O)N[C@@H](Cc1ccc(Cl)cc1)C(=O)O)C(=O)O` [compound 483], for which the amount remaining at 4 h, 5 μM is 37% in series [1] and < 1% in series [2].

With `CCCCCCCCCCCCC(=O)N[C@@H](CCC(=O)NCCOCCOCC(=O)NCCOCCOCC(=O)N[C@@H](CCC(N)=O)C(=O)N[C@@H](CCCNC(=N)N)C(=O)N1CCC[C@@]1(C)C(=O)N[C@@H](CCCCNC(=N)N)C(=O)N[C@@](C)(CC(C)C)C(=O)N[C@@H](CO)C(=O)N[C@@H](Cc1c[nH]cn1)C(=O)N[C@@H](CCCCN)C(=O)NCC(=O)N1CCC[C@H]1C(=O)N[C@@H](CCCC)C(=O)N1CCC[C@H]1C(=O)N[C@@H](Cc1ccc(Cl)cc1)C(=O)O)C(=O)O` [compound 482], the share remaining at 4 h, 5 μM in series [1] is 62%; in series [2], < 1%.

Take `CCCCCCCCCCCCC(=O)N[C@@H](CCC(=O)NCCOCCOCC(=O)NCCOCCOCC(=O)N[C@@H](CCC(N)=O)C(=O)N[C@@H](CCCNC(=N)N)C(=O)N1CCC[C@H]1C(=O)N(C)[C@@H](CCCNC(=N)N)C(=O)N[C@@H](CC(C)C)C(=O)N[C@@H](CO)C(=O)N[C@@H](Cc1c[nH]cn1)C(=O)N[C@@H](CCCCN)C(=O)NCC(=O)N1CCC[C@H]1C(=O)N[C@@H](CCCC)C(=O)N[C@@H](Cc1ccc(Cl)cc1)C(=O)O)C(=O)O` [compound 402] ({Tridecanoyl-γGlu-AEEA-AEEA}-QRP[NMeR]LSHKGP[Nle][Phe(4-Cl)]-OH): the values for the fraction remaining at 4 h, 5 μM in series [1] and in series [2] were 87% and < 1%, respectively.

Regarding `CCCCCCCCCCCCC(=O)N[C@@H](CCC(=O)NCCOCCOCC(=O)NCCOCCOCC(=O)N[C@@H](CCC(N)=O)C(=O)N[C@@H](CCCCNC(=N)N)C(=O)N1CCC[C@H]1C(=O)N(C)[C@@H](CCCNC(=N)N)C(=O)N[C@@](C)(CC(C)C)C(=O)N[C@@H](CO)C(=O)N[C@@H](Cc1c[nH]cn1)C(=O)N[C@@H](CCCCN)C(=O)NCC(=O)N1CCC[C@H]1C(=O)N[C@@H](CCCC)C(=O)N1CCC[C@H]1C(=O)N[C@@H](Cc1ccc2ccccc2c1)C(=O)O)C(=O)O` [compound 473] ({Tridecanoyl-γGlu-AEEA-AEEA}-Q[hArg]P[NMeR][αMeL]SHKGP[Nle]P[2Nal]-OH), the amount remaining at 4 h, 5 μM in series [1] is 82%; in series [2] it was < 1%.

For the compound `CCCCCCCCCCCCC(=O)N[C@@H](CCC(=O)NCCOCCOCC(=O)NCCOCCOCC(=O)N[C@@H](CCC(N)=O)C(=O)N[C@@H](CCCNC(=N)N)C(=O)N1CCC[C@H]1C(=O)N(C)[C@@H](CCCNC(=N)N)C(=O)N[C@@H](CC(C)C)C(=O)N[C@@H](CO)C(=O)N[C@@H](Cc1c[nH]cn1)C(=O)N[C@@H](CCCCN)C(=O)NCC(=O)N1CCC[C@H]1C(=O)N[C@@H](CCCC)C(=O)N1CCC[C@H]1CC(=O)N[C@@H](Cc1ccc(Cl)cc1)C(=O)O)C(=O)O` [compound 426], the amount remaining at 4 h, 5 μM in series [1] is 33%; in series [2], < 1%.
